Assay results as given in US4771055A, “7-[[3-(aminomethyl)-3-alkyl]-1-pyrrolidinyl]-quinoline-carboxylic acids” (Warner-Lambert Company, priority 1987, dated 1988).
Converted amounts (≈) assume the structure as drawn. Read-outs that look alike come from different tables or passages of the source.

Key:
[1] = system: Enterobacter cloacae MA 2646; assay: In vitro antibacterial activity, MIC, microtitration dilution method; assay type: cell-based; details: MA2646, read-out: Minimal Inhibitory Concentration MIC
Text: (§1) The compounds of the invention display potent antibacterial activity against both gram-positive and -negative bacteria when tested by the microtitration dilution method as described in Heifetz, et al, Antimicr. Agents & Chemoth., 6, 124 (1974), which is incorporated herein by reference.

Escherichia coli Vogel = assay: as above; assay type: cell-based; details: read-out: Minimal Inhibitory Concentration MIC
Text: as §1

[2] = system: Klebsiella pneumoniae MGH-2; assay: as above; assay type: cell-based; details: MGH2, read-out: Minimal Inhibitory Concentration MIC
Text: as §1

Proteus rettgeri M 1771 = assay: as above; assay type: cell-based; details: Providencia rettgeri, M1771, read-out: Minimal Inhibitory Concentration MIC
Text: as §1

[3] = system: Pseudomonas aeruginosa UI-18; assay: as above; assay type: cell-based; details: UI18, read-out: Minimal Inhibitory Concentration MIC
Text: as §1

[4] = system: Staphylococcus aureus H 228; assay: as above; assay type: cell-based; details: H228, read-out: Minimal Inhibitory Concentration MIC
Text: as §1

[5] = system: Staphylococcus aureus UC-76; assay: as above; assay type: cell-based; details: UC76, read-out: Minimal Inhibitory Concentration MIC
Text: as §1

[6] = system: Streptococcus faecalis MGH-2; assay: as above; assay type: cell-based; details: Enterococcus faecalis, MGH2, read-out: Minimal Inhibitory Concentration MIC
Text: as §1

[7] = system: Streptococcus pneumoniae SV-1; assay: as above; assay type: cell-based; details: SV1, read-out: Minimal Inhibitory Concentration MIC
Text: as §1

[8] = system: Streptococcus pyogenes C-203; assay: as above; assay type: cell-based; details: C203, read-out: Minimal Inhibitory Concentration MIC
Text: as §1

E. coli = assay: Acute mouse protection test (PD50); assay type: in vivo; details: Escherichia coli, mice, read-out: Protective Dose 50% PD50
Protocol: (§2) The advantage of the compounds of the present invention has been observed when tested orally and compared to a standard quinolone where the 7-position contains a corresponding 3-aminomethylpyrrolidinyl group without the additional 3-alkyl or cycloalkyl substituent.
(§3) Therapeutic activities of the compounds were compared to acute mouse protection tests in which 18- to 22-g female Charles River CD-1 mice were used. Oral or subcutaneous doses in twofold rising incremental series were administered concurrently with bacterial challenge. Challenges were accomplished by the intraperitoneal injection of an estimated 100 medial lethal doses in 0.5 ml volumes of 5% hog gastric mucin or tryptic soy broth. Generally, >90% of the untreated controls died within 48 to 72 hours. Final survival percentages, obtained after four to seven days of observation among groups of 8 to 16 mice, were pooled and used to estimate median protective doses (PD50) by the log-probit method. Ideally a PO/SC ratio for a therapeutically relevant antibacterial should be ≤5. Table 2 indicates the improvement in PO/SC ratio.

P. aerug. = assay: Acute mouse protection test (PD50); assay type: in vivo; details: mice, read-out: Protective Dose 50% PD50
Protocol: as §2, §3

S. aureus = assay: Acute mouse protection test (PD50); assay type: in vivo; details: Staphylococcus aureus, mice, read-out: Protective Dose 50% PD50
Protocol: as §2, §3

S. pyog. = assay: Acute mouse protection test (PD50); assay type: in vivo; details: mice, read-out: Protective Dose 50% PD50
Protocol: as §2, §3

[9] = system: E. coli, P. aerug., S. aureus, S. pyog.; assay: Acute mouse protection test, oral versus subcutaneous activity over all organisms; assay type: in vivo, mice; details: for PO/SC Ratio: ratio of PD50 PO to PD50 SC over the four organisms, mice
Protocol: as §2, §3

[10] = system: gram-positive and -negative bacteria; assay: In vitro antibacterial activity, microtitration dilution method (overall); assay type: cell-based; details: comparison with Compound A
Text: as §1

With `CC1(CN)CCN(c2c(F)cc3c(=O)c(C(=O)O)cn(C4CC4)c3c2F)C1` (stereo not shown) [Example 1, 7-[[3-(Aminomethyl)-3-methyl]-1-pyrrolidinyl]-1-cyclopropyl-6,8-difluoro-1,4-dihydro-4-oxo-3-quinolinecarboxylic acid] the MIC [1] was 0.025 µg/mL (≈ 0.0662 µM), the MIC (Escherichia coli Vogel) was 0.05 µg/mL (≈ 0.132 µM) and the MIC [2] was 0.1 µg/mL (≈ 0.265 µM). For the same compound, the MIC (Proteus rettgeri M 1771) was 0.2 µg/mL (≈ 0.53 µM), the MIC [3] was 0.4 µg/mL (≈ 1.06 µM) and the MIC [4] was 0.013 µg/mL (≈ 0.0344 µM). It also gave an MIC [5] of at most 0.003 µg/mL, an MIC [6] of 0.013 µg/mL (≈ 0.0344 µM) and an MIC [7] of 0.006 µg/mL (≈ 0.0159 µM). The MIC [8] was 0.025 µg/mL (≈ 0.0662 µM), the ED50 (E. coli; PO) was 2 mg/kg and the ED50 (E. coli; SC) was 1 mg/kg. The ED50 (P. aerug.; PO) was 38 mg/kg, the ED50 (P. aerug.; SC) was 18 mg/kg and the ED50 (S. aureus; PO) was 5 mg/kg. The ED50 (S. aureus; SC) was 2 mg/kg, the ED50 (S. pyog.; PO) was 9 mg/kg and the ED50 (S. pyog.; SC) was 3 mg/kg. The “oral activity in mice compared to Compound A” value ([9]; PD50, mouse protection, comparison with Compound A) was “greater oral activity in mice”, the “PO/SC Ratio” value [9] was at most 3 and the “in vitro activity compared to Compound A” value [10] was “comparable in vitro activity”.

In the case of `CC1(CN)CCN(c2c(F)cc3c(=O)c(C(=O)O)cn(C4CC4)c3c2Cl)C1` (stereo not shown) [Example 4, 7-[3-(Aminomethyl)-3-methyl-1-pyrrolidinyl]-8-chloro-1-cyclopropyl-6-fluoro-1,4-dihydro-4-oxo-3-quinolinecarboxylic acid], the MIC [1] is reported as 0.05 µg/mL (≈ 0.127 µM), the MIC (Escherichia coli Vogel) is reported as 0.025 µg/mL (≈ 0.0635 µM) and the MIC [2] is reported as 0.05 µg/mL (≈ 0.127 µM). It also gave an MIC (Proteus rettgeri M 1771) of 0.1 µg/mL (≈ 0.254 µM), an MIC [3] of 0.2 µg/mL (≈ 0.508 µM) and an MIC [4] of 0.013 µg/mL (≈ 0.033 µM). It also gave an MIC [5] of at most 0.003 µg/mL, an MIC [6] of 0.013 µg/mL (≈ 0.033 µM) and an MIC [7] of at most 0.003 µg/mL. The MIC [8] was 0.013 µg/mL (≈ 0.033 µM).

Compound `CC1(CN)CCN(c2c(F)c(N)c3c(=O)c(C(=O)O)cn(C4CC4)c3c2F)C1` (stereo not shown) [Example 2, 5-Amino-7-[[3-(aminomethyl)-3-methyl]-1-pyrrolidinyl]-1-cyclopropyl-6,8-difluoro-1,4-dihydro-4-oxo-3-quinolinecarboxylic acid] has an MIC [1] of 0.1 µg/mL (≈ 0.255 µM), an MIC (Escherichia coli Vogel) of 0.1 µg/mL (≈ 0.255 µM) and an MIC [2] of 0.1 µg/mL (≈ 0.255 µM). It also gave an MIC (Proteus rettgeri M 1771) of 0.4 µg/mL (≈ 1.02 µM), an MIC [3] of 0.8 µg/mL (≈ 2.04 µM) and an MIC [4] of 0.013 µg/mL (≈ 0.0331 µM). It also gave an MIC [5] of at most 0.003 µg/mL, an MIC [6] of 0.025 µg/mL (≈ 0.0637 µM) and an MIC [7] of at most 0.003 µg/mL. It also gave an MIC [8] of 0.013 µg/mL (≈ 0.0331 µM).

Work on `CC1(CN)CCN(c2nc3c(cc2F)c(=O)c(C(=O)O)cn3C2CC2)C1` (stereo not shown) [Example 3, 7-[[3-(Aminomethyl)-3-methyl]-1-pyrrolidinyl]-1-cyclopropyl-6-fluoro-1,4-dihydro-4-oxo-1,8-naphthyridine-3-carboxylic acid] yielded an MIC [1] of 0.1 µg/mL (≈ 0.277 µM), an MIC (Escherichia coli Vogel) of 0.4 µg/mL (≈ 1.11 µM) and an MIC [2] of 0.2 µg/mL (≈ 0.555 µM). For the same compound, the MIC (Proteus rettgeri M 1771) was 0.8 µg/mL (≈ 2.22 µM), the MIC [3] was 0.8 µg/mL (≈ 2.22 µM) and the MIC [4] was 0.05 µg/mL (≈ 0.139 µM). For the same compound, the MIC [5] was 0.013 µg/mL (≈ 0.0361 µM), the MIC [6] was 0.05 µg/mL (≈ 0.139 µM) and the MIC [7] was 0.025 µg/mL (≈ 0.0694 µM). For the same compound, the MIC [8] was 0.05 µg/mL (≈ 0.139 µM).

`NCC1CCN(c2c(F)cc3c(=O)c(C(=O)O)cn(C4CC4)c3c2F)C1` (stereo not shown) [Compound A, 7-[3-(aminomethyl)-1-pyrrolidinyl]-1-cyclopropyl-6,8-difluoro-1,4-dihydro-4-oxo-3-quinolinecarboxylic acid, reference compound] gave an MIC [1] of 0.8 µg/mL (≈ 2.2 µM), an MIC (Escherichia coli Vogel) of 0.2 µg/mL (≈ 0.55 µM) and an MIC [2] of 0.4 µg/mL (≈ 1.1 µM). It also gave an MIC (Proteus rettgeri M 1771) of 0.8 µg/mL (≈ 2.2 µM), an MIC [3] of 0.8 µg/mL (≈ 2.2 µM) and an MIC [4] of 0.1 µg/mL (≈ 0.275 µM). The MIC [5] was 0.013 µg/mL (≈ 0.0358 µM), the MIC [6] was 0.1 µg/mL (≈ 0.275 µM) and the MIC [7] was 0.012 µg/mL (≈ 0.033 µM). For the same compound, the MIC [8] was 0.012 µg/mL (≈ 0.033 µM), the ED50 (E. coli; PO) was 13 mg/kg and the ED50 (E. coli; SC) was 1 mg/kg. It also gave an ED50 (P. aerug.; PO) of over 100 mg/kg, an ED50 (P. aerug.; SC) of 3 mg/kg and an ED50 (S. aureus; PO) of 10 mg/kg. The ED50 (S. aureus; SC) was 1 mg/kg, the ED50 (S. pyog.; PO) was 4 mg/kg and the ED50 (S. pyog.; SC) was 0.4 mg/kg. For the same compound, the “PO/SC Ratio” value [9] was at least 10.
